Measurements reported in patent publication US8759073B2, “Method for effectively controlling harmful organisms in large-scale culture of microalgae” (ENN Science & Technology Development Co., Ltd., priority 2009, dated 2014).
Entries after “also recorded” stand apart in the source; their conditions may differ.

Test system: diatom
Assay: Control of diatom contamination in culture of Chlorococcum sp., microscope examination
Assay type: cell-based
Details: Example 8
Source text: Chlorococcum sp. […] Modified BG11 medium (see Table 3) was used. […] Then air was sufficiently aerated.

Compound: O=C=O [CO2, carbon dioxide]
- diatom, result of microscope examination (CO2 aerated continuously to saturation (about pH 5.6), thirty-six hours): some diatom lost intracellular pigment and only empty shells were left
- residual contaminating diatom after air aeration (saturated CO2 36 hours, then air sufficiently aerated): reduced activity, grew slowly, and would not become dominant algae; also recorded: grew slowly
